Assay results: patent US9642859B2, “Use of capsazepine and analogs thereof to treat cancer” (THE BOARD OF REGENTS OF THE UNIVERSITY OF TEXAS SYSTEM, priority 2012, dated 2017)

Tested on: HSC3 xenografts
Experiment: OSCC mouse xenograft model, HSC3
Format: in vivo, athymic nude (nu/nu) mice
Details: 40 μg CPZ intra-tumoral every other day
Source text: Animals. Six week-old female athymic nude (nu/nu) mice were purchased from HARLAN Laboratories (Indianapolis, Ind.) and used in a laminar air-flow cabinet under pathogen-free conditions. They were provided with a 12-h light/dark schedule at controlled temperature and humidity with food and water ad libitum. Mice were allowed to acclimate for at least one week prior to the start of the experiments. All procedures were approved by the UTHSCSA (University of Texas Health Science Center—San Antonio) Institutional Animal Care and Use Committee.
OSCC Mouse Xenograft Model. Mice were injected subcutaneously in the right flank with 2×10^6 HSC3, SCC4, or SCC25 cells in 0.1 ml of sterile phosphate buffered saline (each of these cell lines is published in scientific literature). Four weeks post-inoculation, tumors had grown to an average volume of 110 mm^3. Mice were then divided into two experimental groups of five animals each, which received the following treatments as intra-tumoral injections: group A, vehicle control (7% DMSO in sterile saline); group B, CPZ treatment (40 μg). The injections were repeated every other day and for a total of at least 14 days.
Treatments. […] Mice were monitored daily for tumor growth, cachexia, and weight loss. Tumor volumes and body weight were recorded every other day. Tumor volumes were calculated by the formula: (4π/3)×(w/2)2×(l/2), where w=width and l=length. […]

`Oc1cc2c(cc1O)CN(C(=S)NCCc1ccc(Cl)cc1)CCC2` [CPZ, 2-[2-(4-chlorphenyl)ethylamino-thiocarbonyl]-7,8-dihydroxy-2,3,4,5-tetrahydro-1H-2-benzazepine] was tested, and the healing of xenografts was “complete healing in some treated HSC3 xenografts” and the tumor volume (two weeks, p<0.05) was “significant reduction in tumor volume”.
